Test results published in ChEMBL document CHEMBL5505979, “Novel aminothiazoximone-corbelled ethoxycarbonylpyrimidones with antibiofilm activity to conquer Gram-negative bacteria through potential multitargeting effects” (Eur J Med Chem, 2024).
In brackets after ≈: the same amount, converted by molar mass. Activity calls are given as the source filed them. The rule behind the calls is not given here.

Experiments:
[1] = Hemolysis in human RBC assessed as morphological changes of RBC by measuring intact/smooth surface rounded cell surface at 128 times of MIC concentration for 6 hrs by microscopic analysis; type: toxicity, cell-based; conditions: erythrocyte
[2] = tested on: Acinetobacter baumannii; experiment: Anti-bacterial activity against Acinetobacter baumannii assessed as growth inhibition by measuring optical density measured at 1/2 time of MIC in presence of 2 times of MIC of norfloxacin by Checkerboard assay (reference value: 0.152); type: functional
[3] = tested on: Acinetobacter baumannii; experiment: Anti-bacterial activity against Acinetobacter baumannii assessed as growth inhibition by measuring optical density measured at 1 time of MIC in presence of 1/2 times of MIC of norfloxacin by Checkerboard assay (reference value: 0.157); type: functional
[4] = tested on: Acinetobacter baumannii; experiment: Anti-bacterial activity against Acinetobacter baumannii assessed as growth inhibition by measuring optical density measured at 2 time of MIC in presence of 2 times of MIC of norfloxacin by Checkerboard assay (reference value: 0.155); type: functional
[5] = tested on: Escherichia coli; experiment: Anti-bacterial activity against Escherichia coli ATCC 25922 assessed as growth inhibition by measuring optical density measured at 1/4 time of MIC in presence of 1/2 times of MIC of norfloxacin by Checkerboard assay (reference value: 0.128); type: functional
[6] = tested on: Acinetobacter baumannii; experiment: Induction of ROS accumulation in Acinetobacter baumannii assessed as decrease in GSH activity by measuring reduced GSH to convert to oxidized GSSG at 1/4 to 2 times of MIC by Ellmans method; type: functional, organism-based
[7] = tested on: Acinetobacter baumannii; experiment: Anti-bacterial activity against Acinetobacter baumannii assessed as growth inhibition by measuring optical density measured at 1/2 time of MIC in presence of 1/2 times of MIC of norfloxacin by Checkerboard assay (reference value: 0.152); type: functional
[8] = tested on: Escherichia coli; experiment: Anti-bacterial activity against Escherichia coli ATCC 25922 assessed as growth inhibition by measuring optical density measured at 4 time of MIC in presence of 1/4 times of MIC of norfloxacin by Checkerboard assay (reference value: 0.125); type: functional
[9] = tested on: Escherichia coli; experiment: Anti-bacterial activity against Escherichia coli ATCC 25922 assessed as growth inhibition by measuring optical density measured at 1/4 time of MIC in presence of 1/8 times of MIC of norfloxacin by Checkerboard assay (reference value: 0.128); type: functional
[10] = tested on: Escherichia coli; experiment: Anti-bacterial activity against Escherichia coli ATCC 25922 assessed as growth inhibition by measuring optical density measured at 2 time of MIC in presence of 1/2 times of MIC of norfloxacin by Checkerboard assay (reference value: 0.128); type: functional
[11] = tested on: Acinetobacter baumannii; experiment: Antibiofilm activity against Acinetobacter baumannii assessed as decrease in biofilm formation at MIC concentration relative to control; type: functional; set-up: scale not given: the % may be the effect or the level left
[12] = tested on: BEAS-2B; experiment: Cytotoxicity against human BEAS-2B cells assessed as cell viability at 0.064 mmol/L measured after 24 hrs; type: toxicity, cell-based; conditions: 64 µM
[13] = tested on: Acinetobacter baumannii; experiment: Reduction of biofilm virulent factors in Acinetobacter baumannii assessed as decrease in extracellular polymeric substances (EPS) by measuring optical density at 490 nm at 1/2 times of MIC concentration by congo red binding assay (reference value: 0.188 to 0.192); type: functional
[14] = tested on: Acinetobacter baumannii; experiment: Anti-bacterial activity against Acinetobacter baumannii assessed as inhibition of bacterial growth measured after 20 passages at sub-MIC concentration by multiple resistance study; type: functional, organism-based
[15] = tested on: Acinetobacter baumannii; experiment: Anti-bacterial activity against Acinetobacter baumannii assessed as growth inhibition by measuring optical density measured at 2 time of MIC in presence of 1 times of MIC of norfloxacin by Checkerboard assay (reference value: 0.155); type: functional
[16] = tested on: Acinetobacter baumannii; experiment: Anti-bacterial activity against Acinetobacter baumannii R674 assessed as inhibition of bacterial growth; type: functional
[17] = tested on: Escherichia coli; experiment: Anti-bacterial activity against Escherichia coli ATCC 25922 assessed at fractional inhibitory concentration measured upto 9 hrs in presence of norfloxacin; type: functional
[18] = tested on: Acinetobacter baumannii; experiment: Anti-bacterial activity against Acinetobacter baumannii assessed as growth inhibition by measuring optical density measured at 1/4 time of MIC in presence of 1/4 times of MIC of norfloxacin by Checkerboard assay (reference value: 0.152); type: functional
[19] = tested on: Escherichia coli; experiment: Anti-bacterial activity against Escherichia coli ATCC 25922 assessed as inhibition of bacterial growth measured after 20 passages at sub-MIC concentration by multiple resistance study; type: functional, organism-based
[20] = tested on: Cell membrane; experiment: Induction of physical destruction of cell membrane in Escherichia coli ATCC 25922 assessed as leakage of protein at 1/4 to 8 times of MIC concentration by Coomassie blue quantitative assay; type: cell membranes
[21] = tested on: Pseudomonas aeruginosa; experiment: Anti-bacterial activity against Pseudomonas aeruginosa ATCC 15442 assessed as inhibition of bacterial growth; type: functional; conditions: Pseudomonas aeruginosa, ATCC 15442; read-out: MIC
[22] = tested on: Escherichia coli; experiment: Reduction of biofilm virulent factors in Escherichia coli ATCC 25922 assessed as decrease in extracellular polymeric substances (EPS) by measuring optical density at 490 nm at 1 times of MIC concentration by congo red binding assay (reference value: 0.028 to 0.031); type: functional
[23] = tested on: Acinetobacter baumannii; experiment: Anti-bacterial activity against Acinetobacter baumannii assessed as growth inhibition by measuring optical density measured at 4 time of MIC in presence of 1/8 times of MIC of norfloxacin by Checkerboard assay (reference value: 0.152); type: functional
[24] = tested on: Staphylococcus aureus; experiment: Anti-bacterial activity against Staphylococcus aureus CMCC (B) 26003 assessed as inhibition of bacterial growth; type: functional
[25] = tested on: Escherichia coli; experiment: Reduction of biofilm virulent factors in Escherichia coli ATCC 25922 assessed as decrease in hydrophobicity index; type: functional, organism-based
[26] = tested on: Acinetobacter baumannii; experiment: Reduction of biofilm virulent factors in Acinetobacter baumannii assessed as decrease in extracellular polymeric substances (EPS) at 4 times of MIC concentration by congo red binding assay relative to control; type: functional; set-up: scale not given: the % may be the effect or the level left
[27] = tested on: Escherichia coli; experiment: Anti-bacterial activity against Escherichia coli ATCC 25922 assessed as inhibition of bacterial growth measured upto 9 hrs; type: functional, organism-based
[28] = tested on: Escherichia coli; experiment: Anti-bacterial activity against Escherichia coli ATCC 25922 assessed as growth inhibition by measuring optical density measured at 4 time of MIC in presence of 2 times of MIC of norfloxacin by Checkerboard assay (reference value: 0.125); type: functional
[29] = tested on: Acinetobacter baumannii; experiment: Anti-bacterial activity against Acinetobacter baumannii assessed as growth inhibition by measuring optical density measured at 2 time of MIC in presence of 1/4 times of MIC of norfloxacin by Checkerboard assay (reference value: 0.155); type: functional
[30] = tested on: Acinetobacter baumannii; experiment: Reduction in metabolic activity of Acinetobacter baumannii assessed as biomass of the fluorescent pink change to non-fluorescent blue; type: functional, organism-based
[31] = tested on: Escherichia coli; experiment: Reduction of biofilm virulent factors in Escherichia coli ATCC 25922 assessed as decrease in extracellular polymeric substances (EPS) at 4 times of MIC concentration by congo red binding assay relative to control; type: functional; set-up: scale not given: the % may be the effect or the level left
[32] = tested on: Pseudomonas aeruginosa; experiment: Anti-bacterial activity against Pseudomonas aeruginosa ST235 assessed as inhibition of bacterial growth; type: functional; conditions: Pseudomonas aeruginosa, ST235; read-out: MIC
[33] = tested on: Acinetobacter baumannii; experiment: Anti-bacterial activity against Acinetobacter baumannii assessed as growth inhibition by measuring optical density measured at 4 time of MIC in presence of 1/2 times of MIC of norfloxacin by Checkerboard assay (reference value: 0.152); type: functional
[34] = tested on: Staphylococcus aureus; experiment: Anti-bacterial activity against Staphylococcus aureus CMCC (B) 26001 assessed as inhibition of bacterial growth; type: functional

With CCCCc1nc(Cl)c(C2NC(=O)NC(CN3CCN(C(=O)/C(=N/OC)c4csc(N)n4)CC3)=C2C(=O)OCC)[nH]1 (centres undefined) the Activity [1] was “Non-Toxic”, the OD [2] was 0.051 and the OD [3] was 0.106. The OD [4] was 0.051, the OD [5] was 0.125 and the Activity [6] was “Active”. The OD [7] was 0.107, the OD [8] was 0.051 and the OD [9] was 0.122. For the same compound, the OD [10] was 0.057, the Activity [11] was 18.6% and the Activity [12] was “Non-Toxic”. The OD [13] was 0.173, the Activity [14] was “Active” and the OD [15] was 0.052. It also gave an MIC [16] of 7 µM (≈ 4.26 µg/mL), an FIC [17] of 0.5 and an OD [18] of 0.129. For the same compound, the Activity [19] was “Active”, the Activity [20] was “Active” and the MIC [21] was 26 µM (≈ 15.8 µg/mL). It also gave an OD [22] of 0.071, an OD [23] of 0.118 and an MIC [24] of 26 µM (≈ 15.8 µg/mL). For the same compound, the Activity [25] was “Active”, the Activity [26] was 52.4% and the Activity [27] was “Dose-Dependent Effect”. The OD [28] was 0.051, the OD [29] was 0.107 and the Activity [30] was “Active”. For the same compound, the Activity [31] was 52.3%, the MIC [32] was 26 µM (≈ 15.8 µg/mL) and the OD [33] was 0.05. The MIC [34] was 26 µM (≈ 15.8 µg/mL).
